# Measurements as given in patent US11130793B2, “GLP-1/GLP-2 dual agonists” (Zealand Pharma A/S, priority 2016, dated 2021).
# Square brackets hold non-standard residues; d marks the D form. Peptide text beside a SMILES is read from it. Aib = CC(C)(N)C(=O)O
# Assays:
# human GLP-1 receptor = target: T1, human GLP-1 receptor (Homo sapiens, UniProt P43220); test: GLP-1 receptor potency assay (cAMP AlphaScreen, HEK293 cells stably expressing GLP-1R); assay type: cell-based; conditions: cAMP response, HEK293 cells expressing human GLP-1R; read-out: EC50 GLP-1
# T1 construct: expressed in transfected cells
# T1 sequence (P43220 24-463): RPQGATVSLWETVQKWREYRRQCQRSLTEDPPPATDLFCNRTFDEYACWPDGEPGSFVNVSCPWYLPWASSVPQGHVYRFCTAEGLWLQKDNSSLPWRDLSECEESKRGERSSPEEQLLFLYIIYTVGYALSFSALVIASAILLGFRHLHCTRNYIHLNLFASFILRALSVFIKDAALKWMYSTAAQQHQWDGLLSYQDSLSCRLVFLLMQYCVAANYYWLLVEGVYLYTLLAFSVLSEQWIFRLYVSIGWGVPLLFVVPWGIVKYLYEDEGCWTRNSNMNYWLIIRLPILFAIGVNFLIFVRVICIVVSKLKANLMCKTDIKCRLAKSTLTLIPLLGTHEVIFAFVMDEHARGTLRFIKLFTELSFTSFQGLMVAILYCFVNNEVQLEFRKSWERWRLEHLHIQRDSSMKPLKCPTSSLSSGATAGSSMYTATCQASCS
# Description: (§1) One useful in vitro assay for measuring GLP-1 and GLP-2 receptor activity is quantitation of cAMP, i.e. 3′-5′-cyclic adenosine monophosphate, which is a second messenger essential in many biological processes, and one of the most ubiquitous mechanisms for regulating cellular functions. […] Test compounds eliciting an increase in the intracellular level of cAMP can be tested in these assays, and the response normalized relative to a positive and negative control (vehicle) to calculate the EC50 and maximal response from the concentration response curve using the 4-parameter logistic (4PL) nonlinear model for curve fitting.
# The cDNA encoding the human glucagon-like peptide 1 receptor (GLP-1R) (primary accession number P43220) was cloned from the cDNA BC112126 (MGC:138331/IMAGE:8327594). The DNA encoding the GLP-1-R was amplified by PCR using primers encoding terminal restriction sites for subcloning. The 5′-end primers additionally encoded a near Kozak consensus sequence to ensure efficient translation. […] The PCR products encoding the GLP-1-R were subcloned into a mammalian expression vector containing a neomycin (G418) resistance marker. The mammalian expression vectors encoding the GLP-1-R were transfected into HEK293 cells by a standard calcium phosphate transfection method. 48 hours post-transfection, cells were seeded for limited dilution cloning and selected with 1 mg/ml G418 in the culture medium. Following 3 weeks in G418 selection clones were picked and tested in a functional GLP-1 receptor potency assay as described below.
# (§2) The cAMP AlphaScreen assay from Perkin Elmer was used to quantitate the cAMP response to activation of the GLP1 and GLP2 receptor, respectively. […] Data from test compounds eliciting an increase in the intracellular level of cAMP were normalized relative to the positive and negative control (vehicle) to calculate the EC50 and maximal response from the concentration response curve.
# human GLP-2 receptor = target: T2, human GLP-2 receptor (Homo sapiens, UniProt O95838, D470N); test: GLP-2 receptor potency assay (cAMP AlphaScreen, HEK293 cells stably expressing GLP-2R); assay type: cell-based; conditions: cAMP response, HEK293 cells expressing human GLP-2R
# T2 sequence (O95838 1-553 D470N): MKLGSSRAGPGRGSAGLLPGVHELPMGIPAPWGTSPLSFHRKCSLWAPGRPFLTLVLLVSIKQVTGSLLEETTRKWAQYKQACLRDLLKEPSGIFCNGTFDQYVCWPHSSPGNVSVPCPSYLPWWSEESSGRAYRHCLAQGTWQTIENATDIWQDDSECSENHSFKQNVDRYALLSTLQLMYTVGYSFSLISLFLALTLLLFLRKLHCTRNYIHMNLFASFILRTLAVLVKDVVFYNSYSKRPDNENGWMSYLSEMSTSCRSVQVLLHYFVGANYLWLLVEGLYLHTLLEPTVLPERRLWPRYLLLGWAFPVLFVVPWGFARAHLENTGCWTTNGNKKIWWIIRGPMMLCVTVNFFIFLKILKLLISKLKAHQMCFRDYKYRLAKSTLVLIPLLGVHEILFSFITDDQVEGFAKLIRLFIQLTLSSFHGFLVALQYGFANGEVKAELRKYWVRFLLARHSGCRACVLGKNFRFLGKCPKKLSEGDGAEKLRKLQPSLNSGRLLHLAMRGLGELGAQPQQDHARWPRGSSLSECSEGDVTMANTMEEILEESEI
# Description: as §1
# The hGLP2-R was purchased from MRC-geneservice, Babraham, Cambridge as an Image clone: 5363415 (11924-I17). For subcloning into a mammalian expression vector, primers for subcloning were obtained from DNA-Technology, Risskov, Denmark. The 5′ and 3′ primers used for the PCR reaction include terminal restriction sites for cloning and the context of the 5′ primer is modified to a Kozak consensus without changing the sequence of the product encoded by the ORF. A standard PCR reaction was run using Image clone 5363415 (11924-117) as a template with the above mentioned primers and Polymerase Herculase II Fusion in a total vol. of 50 μl. The generated PCR product was purified using GFX PCR and Gel band purification kit, digested with restriction enzymes and cloned into the mammalian expression vector using Rapid DNA Ligation Kit. Ligation reaction was transformed to XL10 Gold Ultracompetent cells and colonies were picked for DNA production using Endofree Plasmid maxi kit. Subsequent sequence analysis was conducted by MWG Eurofins, Germany.
# HEK293 cells were transfected using the Lipofectamine PLUS transfection method. The day before transfection, HEK293 cells were seeded in two T75 flasks at a density of 2×10^6 cells/T75 flask in cell culturing medium without antibiotics. On the day of transfection, cells were washed with 1×DPBS and medium was replaced with Optimem to a volume of 5 mL/T75 flask before addition of Lipofectamine-plasmid complexes were added gently and drop wise to the cells in T75 flasks and replaced with growth medium after 3 hours and again to growth medium supplemented with 500 μg/mL G418 after 24 hours. Following 4 weeks in G418 selection, clones were picked and tested in a functional GLP-2 receptor potency assay as described below.
# as §2
smiles,measurement,setting,value
CC[C@H](C)[C@H](NC(=O)[C@H](CC(C)C)NC(=O)[C@H](Cc1c[nH]c2ccccc12)NC(=O)[C@H](C)NC(=O)[C@@H](NC(=O)[C@H](Cc1ccccc1)NC(=O)[C@H](CC(=O)O)NC(=O)[C@H](CCCNC(=N)N)NC(=O)[C@H](C)NC(=O)[C@H](C)NC(=O)[C@H](CCC(N)=O)NC(=O)[C@H](CCC(=O)O)NC(=O)[C@H](CC(=O)O)NC(=O)[C@H](CC(C)C)NC(=O)[C@@H](NC(=O)[C@@H](NC(=O)[C@H](CO)NC(=O)[C@H](CC(C)C)NC(=O)[C@H](CCC(=O)O)NC(=O)[C@H](CO)NC(=O)[C@@H](NC(=O)[C@H](Cc1ccccc1)NC(=O)[C@@H](NC(=O)CNC(=O)[C@H](CCC(=O)O)NC(=O)C(C)(C)NC(=O)[C@@H](N)Cc1c[nH]cn1)[C@@H](C)O)[C@@H](C)O)[C@@H](C)O)[C@@H](C)CC)[C@@H](C)CC)C(=O)N[C@@H](C)C(=O)N[C@@H](Cc1c[nH]cn1)C(=O)N[C@@H](CCCCN)C(=O)N[C@H](C(=O)N[C@H](C(=O)N[C@@H](CC(=O)O)C(=O)O)[C@@H](C)O)[C@@H](C)CC [Compound 10] (H-H[Aib]EGTFTSELSTILDEQAARDFIAWLIAHKITD-OH),EC50,human GLP-1 receptor,5 pM
same,EC50,human GLP-2 receptor,50 pM
CC[C@H](C)[C@H](NC(=O)[C@H](CC(C)C)NC(=O)[C@H](Cc1c[nH]c2ccccc12)NC(=O)[C@H](C)NC(=O)[C@@H](NC(=O)[C@H](Cc1ccccc1)NC(=O)[C@H](CC(=O)O)NC(=O)[C@H](CCCNC(=N)N)NC(=O)[C@H](C)NC(=O)[C@H](C)NC(=O)[C@H](CCC(N)=O)NC(=O)[C@H](CCC(=O)O)NC(=O)[C@H](CC(=O)O)NC(=O)[C@H](CC(C)C)NC(=O)[C@@H](NC(=O)[C@@H](NC(=O)[C@H](C)NC(=O)[C@H](CC(C)C)NC(=O)[C@H](CCC(=O)O)NC(=O)[C@H](CO)NC(=O)[C@@H](NC(=O)[C@H](Cc1ccccc1)NC(=O)[C@@H](NC(=O)CNC(=O)[C@H](CCC(=O)O)NC(=O)C(C)(C)NC(=O)[C@@H](N)Cc1c[nH]cn1)[C@@H](C)O)[C@@H](C)O)[C@@H](C)O)[C@@H](C)CC)[C@@H](C)CC)C(=O)N[C@@H](C)C(=O)N[C@@H](CCC(N)=O)C(=O)N[C@@H](CCCCN)C(=O)N[C@H](C(=O)N[C@H](C(=O)N[C@@H](CC(=O)O)C(=O)O)[C@@H](C)O)[C@@H](C)CC [Compound 19] (H-H[Aib]EGTFTSELATILDEQAARDFIAWLIAQKITD-OH),EC50,human GLP-1 receptor,5 pM
same,EC50,human GLP-2 receptor,150 pM
CC[C@H](C)[C@H](NC(=O)[C@H](Cc1ccccc1)NC(=O)[C@H](CC(=O)O)NC(=O)[C@H](CCCNC(=N)N)NC(=O)[C@H](C)NC(=O)[C@H](C)NC(=O)[C@H](CCC(N)=O)NC(=O)[C@H](CCC(=O)O)NC(=O)[C@H](CC(=O)O)NC(=O)[C@H](CC(C)C)NC(=O)[C@@H](NC(=O)[C@@H](NC(=O)[C@H](C)NC(=O)[C@H](CC(C)C)NC(=O)[C@H](CCC(=O)O)NC(=O)[C@H](CO)NC(=O)[C@@H](NC(=O)[C@H](Cc1ccccc1)NC(=O)[C@@H](NC(=O)CNC(=O)[C@H](CCC(=O)O)NC(=O)C(C)(C)NC(=O)[C@@H](N)Cc1c[nH]cn1)[C@@H](C)O)[C@@H](C)O)[C@@H](C)O)[C@@H](C)CC)C(=O)N[C@@H](CC(N)=O)C(=O)N[C@@H](Cc1c[nH]c2ccccc12)C(=O)N[C@@H](CC(C)C)C(=O)N[C@@H](CCCCN)C(=O)N[C@@H](CO)C(=O)N[C@@H](Cc1ccc(O)cc1)C(=O)N[C@@H](CCCCN)C(=O)N[C@H](C(=O)N[C@H](C(=O)N[C@@H](CC(=O)O)C(=O)O)[C@@H](C)O)[C@@H](C)CC [Compound 36] (H-H[Aib]EGTFTSELATILDEQAARDFINWLKSYKITD-OH),EC50,human GLP-1 receptor,7 pM
same,EC50,human GLP-2 receptor,110 pM
CC[C@H](C)[C@H](NC(=O)[C@H](Cc1ccccc1)NC(=O)[C@H](CC(=O)O)NC(=O)[C@H](CCCNC(=N)N)NC(=O)[C@H](C)NC(=O)[C@H](C)NC(=O)[C@H](CCC(N)=O)NC(=O)[C@H](CCC(=O)O)NC(=O)[C@H](CC(=O)O)NC(=O)[C@H](CC(C)C)NC(=O)[C@@H](NC(=O)[C@@H](NC(=O)[C@H](C)NC(=O)[C@H](CC(C)C)NC(=O)[C@H](CCC(=O)O)NC(=O)[C@H](CO)NC(=O)[C@H](CO)NC(=O)[C@H](Cc1ccccc1)NC(=O)[C@H](CO)NC(=O)CNC(=O)[C@H](CCC(=O)O)NC(=O)C(C)(C)NC(=O)[C@@H](N)Cc1c[nH]cn1)[C@@H](C)O)[C@@H](C)CC)C(=O)N[C@@H](C)C(=O)N[C@@H](Cc1c[nH]c2ccccc12)C(=O)N[C@@H](CC(C)C)C(=O)N[C@H](C(=O)N[C@@H](CCC(N)=O)C(=O)N[C@@H](Cc1c[nH]cn1)C(=O)N[C@@H](CCCCN)C(=O)N[C@H](C(=O)N[C@H](C(=O)N[C@@H](CC(=O)O)C(=O)O)[C@@H](C)O)[C@@H](C)CC)[C@@H](C)CC [Compound 41] (H-H[Aib]EGSFSSELATILDEQAARDFIAWLIQHKITD-OH),EC50,human GLP-1 receptor,78 pM
same,EC50,human GLP-2 receptor,26 pM
"CC[C@H](C)[C@H](NC(=O)[C@H](Cc1ccccc1)NC(=O)[C@H](CC(=O)O)NC(=O)[C@H](CCCNC(=N)N)NC(=O)[C@H](C)NC(=O)[C@H](C)NC(=O)[C@H](CC(C)C)NC(=O)[C@H](CC(N)=O)NC(=O)[C@H](CC(=O)O)NC(=O)[C@H](CC(C)C)NC(=O)[C@@H](NC(=O)[C@@H](NC(=O)[C@H](CC(N)=O)NC(=O)[C@H](CCSC)NC(=O)[C@H](CCC(=O)O)NC(=O)[C@H](CC(=O)O)NC(=O)[C@H](CO)NC(=O)[C@H](Cc1ccccc1)NC(=O)[C@H](CO)NC(=O)CNC(=O)[C@H](CC(=O)O)NC(=O)CNC(=O)[C@@H](N)Cc1c[nH]cn1)[C@@H](C)O)[C@@H](C)CC)C(=O)N[C@@H](CC(N)=O)C(=O)N[C@@H](Cc1c[nH]c2ccccc12)C(=O)N[C@@H](CC(C)C)C(=O)N[C@H](C(=O)N[C@@H](CCC(N)=O)C(=O)N[C@H](C(=O)N[C@@H](CCCCN)C(=O)N[C@H](C(=O)N[C@H](C(=O)N[C@@H](CC(=O)O)C(=O)O)[C@@H](C)O)[C@@H](C)CC)[C@@H](C)O)[C@@H](C)CC [Teduglutide, [Gly2]-hGLP-2 (1-33), reference compound]",EC50,human GLP-1 receptor,39000 pM
CC[C@H](C)[C@H](NC(=O)[C@H](Cc1ccccc1)NC(=O)[C@H](CC(=O)O)NC(=O)[C@H](CCCNC(=N)N)NC(=O)[C@H](C)NC(=O)[C@H](C)NC(=O)[C@H](CCC(N)=O)NC(=O)[C@H](CCC(=O)O)NC(=O)[C@H](CC(=O)O)NC(=O)[C@H](CC(C)C)NC(=O)[C@@H](NC(=O)[C@@H](NC(=O)[C@H](C)NC(=O)[C@H](CC(C)C)NC(=O)[C@H](CCC(=O)O)NC(=O)[C@H](CO)NC(=O)[C@@H](NC(=O)[C@H](Cc1ccccc1)NC(=O)[C@@H](NC(=O)CNC(=O)[C@H](CCC(=O)O)NC(=O)C(C)(C)NC(=O)[C@@H](N)Cc1c[nH]cn1)[C@@H](C)O)[C@@H](C)O)[C@@H](C)O)[C@@H](C)CC)C(=O)N[C@@H](C)C(=O)N[C@@H](Cc1c[nH]c2ccccc12)C(=O)N[C@@H](CC(C)C)C(=O)N[C@H](C(=O)N[C@@H](CCCNC(=N)N)C(=O)N[C@@H](Cc1c[nH]cn1)C(=O)N[C@@H](CCCCN)C(=O)N[C@H](C(=O)N[C@H](C(=O)N[C@@H](CC(=O)O)C(=O)O)[C@@H](C)O)[C@@H](C)CC)[C@@H](C)CC [Compound 17] (H-H[Aib]EGTFTSELATILDEQAARDFIAWLIRHKITD-OH),EC50,human GLP-1 receptor,6 pM
same,EC50,human GLP-2 receptor,66 pM
